# Measured values as given in US4210749A, “Substituted 1,2,4,5-tetrahydro-3H,3 benzazepines” (priority 1979, dated 1980).
# Structures can show the parent of a compound that is named as a salt. Where two headings read alike, the source gives them in different places.
# Key:
# Format in all cases: in vivo
# [1] = Narcotic antagonism I.P., Table IV
# [2] = I.P. symptomatology (highest tolerated dose, median lethal dose), Table IV; details: for LD50 / MTD: in vivo, ip; for MTD: read-out: HTD (highest tolerated dose)
# sciatic block = assay: Local anesthetic sciatic block, Table IV; details: 1%
# [3] = Analgesic activity, hot plate method
# [4] = Analgesic activity, writhing method; details: po
Structure (SMILES),Narcotic Antagonism [1],LD50 [2] [mg/kg],MTD [2] [mg/kg],Local Anesthetic Sciatic Block (sciatic block),also measured
"COc1ccc2c(c1)CC(C)NCC2 (stereo not shown) [Example 32, 8-Methoxy-2-methyl-1,2,4,5-tetrahydro-3H,3-benzazepine]",Negative,~60,~10,Positive,–
"Oc1ccc2c(c1)CCNCC2 [Example 2, 7-Hydroxy-1,2,4,5-tetrahydro-3H,3-benzazepine]",Negative,200,10,Positive,–
"COc1ccc(CCN2CCc3ccc(OC)cc3CC2C)cc1 (stereo not shown) [Example 61, 8-Methoxy-3-(p-methoxyphenethyl-2-methyl-1,2,4,5-tetrahydro-3H,3-benzazepine hydrochloride]",Negative,~60,3,Positive,–
"CCN1CCc2ccc(O)cc2CC1 [Example 21, 3-Ethyl-7-hydroxy-1,2,4,5-tetrahydro-3H,3-benzazepine]",Positive,80,30,–,–
"COc1ccc2c(c1)CCN(CC1CCCC1)CC2 [Example 12, 3-Cyclopentylmethyl-7-methoxy-1,2,4,5-tetrahydro-3H,3-benzazepine]",–,–,–,–,ED50 ([3]; ip): 45 mg/kg; ED50 ([3]; po): > 178 mg/kg; ED50 [4]: > 178 mg/kg
"CC(C)=CCN1CCc2ccc(O)cc2CC1C (single isomer, unassigned; (-)) [Example 55, (-)-3-(3,3-Dimethylallyl)-8-hydroxy-2-methyl-1,2,4,5-tetrahydro-3H,3-benzazepine hydrochloride]",–,–,10,Positive,–
"COc1ccc2c(c1)CC(C)N(CC1CC1)CC2 (stereo not shown) [Example 42, 3-Cyclopropylmethyl-8-methoxy-2-methyl-1,2,4,5-tetrahydro-3H,3-benzazepine hydrochloride]",Negative,60,10,–,–
"COc1ccc2c(c1)CCN(CC1CCC1)CC2 [Example 13, 3-Cyclobutylmethyl-7-methoxy-1,2,4,5-tetrahydro-3H,3-benzazepine]",Negative,80,30,–,–
"Oc1ccc2c(c1)CCN(C[C@@H]1C[C@H]1c1ccccc1)CC2 (relative stereo) [Example 30, 7-Hydroxy-3(trans-2-phenylcyclopropylmethyl)-1,2,4,5-tetrahydro-3H,3-benzazepine]",Negative,> 1000,1000,–,–
"Oc1ccc2c(c1)CCN(CC1CC1)CC2 [Example 8, 3-Cyclopropylmethyl-7-hydroxy-1,2,4,5-tetrahydro-3H,3-benzazepine]",Positive,30,20,Positive,–
"CC(C)=CCN1CCc2ccc(O)cc2CC1C (single isomer, unassigned; (+)) [Example 56, (+)-3-(3,3-Dimethylallyl)-8-hydroxy-2-methyl-1,2,4,5-tetrahydro-3H,3-benzazepine hydrochloride]",–,–,–,Positive,Narcotic Antagonism ([1]; hydrochloride): Negative; HTD (highest tolerated dose) [2]: 10 mg/kg
"COc1ccc2c(c1)CC(C)NCC2 (single isomer, unassigned; (+)) [Example 53, (+)-8-Methoxy-2-methyl-1,2,4,5-tetrahydro-3H,3-benzazepine hydrochloride]",Negative,–,–,Positive,HTD (highest tolerated dose) [2]: 10 mg/kg
"C[C@@H]1Cc2ccccc2CCN1C (single isomer, unassigned) [Example 54, (-)-2,3-Dimethyl-1,2,4,5-tetrahydro-3H,3-benzazepine hydrochloride]",Negative,60,3,Positive,–
"COc1ccc2c(c1)CC(C)N(C)CC2 (single isomer, unassigned; (-)) [Example 63, (-)-8-Methoxy-2,3-dimethyl-1,2,4,5-tetrahydro-3H,3-benzazepine hydrochloride]",Negative,–,–,Positive,HTD (highest tolerated dose) ([2]; hydrochloride): 3 mg/kg
"CC(C)=CCN1CCc2ccc(OC(=O)C34CC5CC(CC(C5)C3)C4)cc2CC1 [Example 6, 7-(Adamantanecarbonyloxy)-3-(3,3-dimethylallyl)-1,2,4,5-tetrahydro-3H,3-benzazepine hydrochloride]",Positive,> 300,10,–,–
"COc1ccc2c(c1)CC(C)NCC2 (single isomer, unassigned; (-)) [Example 51, (-)8-Methoxy-2-methyl-1,2,4,5-tetrahydro-3H,3-benzazepine]",Negative,–,10,Positive,–
"C[C@@H]1Cc2ccccc2CCN1 (single isomer, unassigned) [Example 49, (+)-2-Methyl-1,2,4,5-tetrahydro-3H,3-benzazepine hydrochloride]",Negative,200,30,Positive,–
"Oc1ccc2c(c1)CCN(Cc1ccco1)CC2 [Example 60, 3-Furfuryl-7-hydroxy-1,2,4,5-tetrahydro-3H,3-benzazepine hydrochloride]",Negative,~200,10,Positive,–
"COc1ccc2c(c1)CC(C)N(C)CC2 (single isomer, unassigned; (+)) [Example 62, (+)-8-Methoxy-2,3-dimethyl-1,2,4,5-tetrahydro-3H,3-benzazepine hydrochloride]",Negative,–,–,Positive,HTD (highest tolerated dose) ([2]; hydrochloride): 10 mg/kg
"C[C@H]1Cc2ccccc2CCN1C (single isomer, unassigned) [Example 50, (+)-2,3-Dimethyl-1,2,4,5-tetrahydro-3H,3-benzazepine hydrochloride]",Negative,–,10,Positive,LD50 (median lethal dose) [2]: 25 mg/kg
"COc1ccc2c(c1)CC(C)N(CCc1ccc(O)cc1)CC2 (stereo not shown) [Example 58, 3-(P-Hydroxyphenethyl-8-methoxy-2-methyl-1,2,4,5-tetrahydro-3H,3-benzazepine hydrochloride]",Negative,> 300,1,Insoluble,–
"COc1ccc2c(c1)CC(C)N(CCc1ccccc1C)CC2 (stereo not shown) [Example 59, 3-(o-Methylphenethyl)-8-methoxy-2-methyl-1,2,4,5-tetrahydro-3H,3-benzazepine hydrochloride]",Negative,~60,0.3,Insoluble,–
"C[C@H]1Cc2ccccc2CCN1 (single isomer, unassigned) [Example 48, (-)-2-Methyl-1,2,4,5-tetrahydro-3H,3-benzazepine]",Some,60,30,Positive,–
"COc1ccc2c(c1)CCN(CC=C(C)C)CC2 [Example 3, 3-(3,3-Dimethylallyl)-7-methoxy-1,2,4,5-tetrahydro-3H,3-benzazepine]",Negative,50,30,Positive,–
"CC1Cc2cc(O)ccc2CCN1C (single isomer, unassigned; (+)) [Example 57, (+)-8-Hydroxy-2,3-dimethyl-1,2,4,5-tetrahydro-3H,3-benzazepine hydrochloride]",–,> 100,10,Positive,–
"COc1ccc2c(c1)CC(C)N(CC=Cc1ccccc1)CC2 (stereo not shown) [Example 44, 8-Methoxy-2-methyl-3-(3-phenylallyl)-1,2,4,5-tetrahydro-3H,3-benzazepine hydrochloride]",Negative,60,10,Insoluable,–
"Oc1ccc2c(c1)CCN(CC1CCC1)CC2 [Example 9, 3-Cyclobutylmethyl-7-hydroxy-1,2,4,5-tetrahydro-3H,3-benzazepine]",Negative,80,20,Positive,–
"COc1ccc2c(c1)CC(C)N(CC=C(C)C)CC2 (stereo not shown) [Example 33, 3-(3,3-Dimethylallyl)-8-methoxy-2-methyl-1,2,4,5-tetrahydro-3H,3-benzazepine hydrochloride]",Negative,50,1,–,–
